# According to ChEMBL document CHEMBL5338723, “Emerging Target-Directed Approaches for the Treatment and Diagnosis of Microbial Infections” (J Med Chem, 2023):
# *1 amine or outer side, *2 acyl side, *3 side chain or, on linkers, in order; H or OH if unused. Where a SMILES comes first, the peptide text is derived from it. [ ]: non-standard residue; d: D form. X3 = Cn1c(=O)ccn([C@@H]2S[C@H]([C@@H](O)[C@@H](N[*:1])C(=O)[*:2])[C@H](O)[C@H]2O)c1=O; Orn(N5-OH,N5-Ac) = CC(=O)N(O)CCC[C@H](N)C(=O)O
# What was measured:
# [1] = test system: Mycobacterium tuberculosis; experiment: Antimicrobial activity against Mycobacterium tuberculosis H37Rv assessed as microbial growth inhibition; format: functional
# [2] = test system: Pseudomonas aeruginosa; experiment: Antibacterial activity against Wild type Pseudomonas aeruginosa KW799 assessed as microbial growth inhibition incubated for 20 hrs in iron depleted media by CLSI protocol based broth microdilution method; format: functional
# [3] = test system: Pseudomonas aeruginosa; experiment: Antibacterial activity against Pseudomonas aeruginosa PAO1 assessed as microbial growth inhibition incubated for 20 hrs in iron depleted media by CLSI protocol based broth microdilution method; format: functional
# [4] = test system: Pseudomonas aeruginosa; experiment: Antibacterial activity against Pseudomonas aeruginosa KW799/61 assessed as microbial growth inhibition incubated for 20 hrs in iron depleted media by CLSI protocol based broth microdilution method; format: functional
# [5] = test system: Pseudomonas aeruginosa; experiment: Antibacterial activity against Pseudomonas aeruginosa Pa4 assessed as microbial growth inhibition incubated for 20 hrs in iron depleted media by CLSI protocol based broth microdilution method; format: functional
# [6] = test system: Acinetobacter genomosp. 13TU; experiment: Antimicrobial activity against Acinetobacter nosocomialis assessed as microbial growth inhibition; format: functional
# [7] = test system: Escherichia coli; experiment: Antibacterial activity against Escherichia coli assessed as microbial growth inhibition; format: functional
# [8] = test system: Acinetobacter baumannii; experiment: Antimicrobial activity against Acinetobacter baumannii assessed as microbial growth inhibition; format: functional
# [9] = test system: Salmonella typhimurium; experiment: Antimicrobial activity against Salmonella enterica subsp. enterica serovar Typhimurium 19585 assessed as microbial growth inhibition; format: functional
# [10] = test system: Salmonella typhi; experiment: Antimicrobial activity against Salmonella enterica subsp. enterica serovar Typhi 19214 assessed as microbial growth inhibition; format: functional
# [11] = test system: Proteus mirabilis; experiment: Antimicrobial activity against Proteus mirabilis 29906 assessed as microbial growth inhibition; format: functional
# [12] = test system: Escherichia coli; experiment: Antimicrobial activity against Escherichia coli 25922 assessed as microbial growth inhibition; format: functional
# [13] = test system: Salmonella typhi; experiment: Antimicrobial activity against Salmonella enterica subsp. enterica serovar Typhi 700931 assessed as microbial growth inhibition; format: functional
# [14] = test system: Shigella flexneri; experiment: Antimicrobial activity against Shigella flexneri M90T assessed as microbial growth inhibition; format: functional
# [15] = test system: Salmonella typhimurium; experiment: Antimicrobial activity against Salmonella enterica subsp. enterica serovar Typhimurium BAA-190 assessed as microbial growth inhibition; format: functional
# [16] = test system: Escherichia coli; experiment: Antimicrobial activity against Escherichia coli DH5alpha assessed as microbial growth inhibition; format: functional
# [17] = test system: Salmonella typhimurium; experiment: Antimicrobial activity against Salmonella enterica subsp. enterica serovar Typhimurium 29630 assessed as microbial growth inhibition; format: functional
# [18] = test system: Escherichia coli; experiment: Antimicrobial activity against Escherichia coli BAA-196 assessed as microbial growth inhibition; format: functional
# [19] = test system: Shigella flexneri; experiment: Antimicrobial activity against Shigella flexneri 2457T assessed as microbial growth inhibition; format: functional
# [20] = Cytotoxicity against human L02 assessed as lethal dose; format: toxicity, cell-based; conditions: L02 cells, read-out: LD50 (the source's name)
# [21] = test system: Streptococcus pneumoniae; experiment: Antimicrobial activity against Streptococcus pneumoniae assessed as microbial growth inhibition; format: functional
# [22] = test system: Yersinia enterocolitica; experiment: Antimicrobial activity against Yersinia enterocolitica assessed as microbial growth inhibition; format: functional
# [23] = test system: Neisseria gonorrhoeae; experiment: Antimicrobial activity against Neisseria gonorrhoeae assessed as microbial growth inhibition; format: functional
# [24] = test system: Staphylococcus aureus; experiment: Antimicrobial activity against methicillin-resistant Staphylococcus aureus ATCC 33591 assessed as microbial growth inhibition; format: functional
# [25] = test system: Enterococcus faecalis; experiment: Antimicrobial activity against vancomycin-resistant Enterococcus faecalis ATCC 51575 assessed as microbial growth inhibition; format: functional
# [26] = test system: Staphylococcus aureus; experiment: Antimicrobial activity against vancomycin intermediate Staphylococcus aureus assessed as microbial growth inhibition; format: functional
# [27] = test system: Enterococcus faecium; experiment: Antimicrobial activity against vancomycin-resistant Enterococcus faecium ATCC 51559 assessed as microbial growth inhibition; format: functional
# [28] = test system: Escherichia coli; experiment: Antimicrobial activity against Escherichia coli ATCC 35218 assessed as microbial growth inhibition; format: functional
# [29] = test system: Salmonella typhimurium; experiment: Antimicrobial activity against Salmonella enterica subsp. enterica serovar Typhimurium assessed as increase in microbial growth inhibition; format: functional
# [30] = test system: Salmonella enteritidis; experiment: Antimicrobial activity against Salmonella enterica subsp. enterica serovar Enteritidis assessed as increase in microbial growth inhibition; format: functional
# [31] = test system: Escherichia coli; experiment: Antimicrobial activity against Escherichia coli UTI89 assessed as microbial growth inhibition; format: functional
molecule,measurement,setting,value
Oc1nc2ccccc2nc1O,MIC,[1],> 59.2 µM
CC(=O)Oc1cccc(C(=O)NCCCC(CCCNC(=O)c2cccc(OC(C)=O)c2OC(C)=O)(CCCNC(=O)c2cccc(OC(C)=O)c2OC(C)=O)NC(=O)CCC(=O)NC(C(=O)NC2C(=O)N3C2SC(C)(C)[C@@H]3C(=O)O)c2ccc(O)cc2)c1OC(C)=O (stereo partly specified),MIC,[2],0.05 µM
same,MIC,[3],0.05 µM
same,MIC,[4],0.05 µM
same,MIC,[5],0.05 µM
CCCCCCCCCC(=O)N[C@@H](Cc1c[nH]c2ccccc12)C(=O)N[C@H](CC(N)=O)C(=O)N[C@@H](CC(=O)O)C(=O)N[C@@H]1C(=O)NCC(=O)N[C@@H](CCCNC(=O)[C@H](CCSC)NC(=O)[C@H](Cc2ccc(O)cc2)NC(=O)[C@H](CCCCN)NC(=O)[C@@H]2CCCN2C(=O)[C@H](CO)NC(=O)[C@H](Cc2c[nH]c3ccccc23)NC(=O)CN(CCCCNC(=O)c2cccc(O)c2O)C(=O)c2cccc(O)c2O)C(=O)N[C@@H](CC(=O)O)C(=O)N[C@H](C)C(=O)N[C@@H](CC(=O)O)C(=O)NCC(=O)N[C@H](CO)C(=O)N[C@@H](C(C)CC(=O)O)C(=O)N[C@@H](CC(=O)c2ccccc2N)C(=O)O[C@@H]1C (stereo partly specified),MIC,[6],1 µM
same,MIC,[7],1 µM
same,MIC,[8],1 µM
H-GGAPATSANAAGAAAIVGALAGIPGGPLGVVVGAVSAGLTTAIGSTVGSGSASSSAGGGS-OH,MIC,[9],1.1 µM
same,MIC,[10],1.1 µM
same,MIC,[11],1.1 µM
same,MIC,[12],1.1 µM
same,MIC,[13],1.1 µM
same,MIC,[14],1.1 µM
same,MIC,[15],1.1 µM
same,MIC,[16],1.1 µM
same,MIC,[17],1.1 µM
same,MIC,[18],1.1 µM
same,MIC,[19],1.1 µM
CN(Cc1cnc2nc(N)nc(N)c2n1)c1ccc(C(=O)N[C@@H](CCC(=O)O)C(=O)O)cc1 [METHOTREXATE],CC50,[20],8 nM
same,MIC,[21],≥ 2.2 µM
same,MIC,[22],> 35.2 µM
"CC(=O)N(O)CCC[C@H](NC(=O)[C@H](CCCN(O)C(C)=O)NC(=O)[C@@H](N)CCCN(O)C(C)=O)C(=O)N[C@@H](CO)C(=O)N[C@@H](C(=O)O)[C@H](O)[C@H]1S[C@@H](n2ccc(=O)n(C)c2=O)[C@H](O)[C@H]1O (H-[Orn(N5-OH,N5-Ac)][Orn(N5-OH,N5-Ac)][Orn(N5-OH,N5-Ac)]S[X3]-OH)",MIC,[23],4 ng/mL
CN[C@H](CC(C)C)C(=O)N[C@H]1C(=O)N[C@@H](CC(N)=O)C(=O)N[C@H]2C(=O)N[C@H]3C(=O)N[C@H](C(=O)N[C@H](C(=O)NCCCNC(=O)[C@H](O)[C@@H](O)[C@H](O)[C@H](O)CO)c4cc(O)cc(O)c4-c4cc3ccc4O)[C@H](O)c3ccc(c(Cl)c3)Oc3cc2cc(c3O[C@@H]2O[C@H](CO)[C@@H](O)[C@H](O)[C@H]2O[C@H]2C[C@](C)(N)[C@H](O)[C@H](C)O2)Oc2ccc(cc2Cl)[C@H]1O,MIC,[24],0.6 µM
same,MIC,[25],60 µM
same,MIC,[26],0.9 µM
same,MIC,[27],54 µM
C[C@@H](O)[C@H]1C(=O)N2C(C(=O)O)=C(S[C@H]3C[C@@H](C(=O)N(C)C)N(C(=O)CCCc4cn(CCOCCOCCOCCNC(=O)c5cc(O)c(O)c(C(=O)N[C@H]6COC(=O)[C@@H](NC(=O)c7cccc(O)c7O)COC(=O)[C@@H](NC(=O)c7cccc(O)c7O)COC6=O)c5)nn4)C3)[C@H](C)[C@H]12,MIC,[28],0.01 µM
same,MIC,[29],0.01 µM
same,MIC,[30],0.01 µM
same,MIC,[31],0.01 µM
